Source: article PMC2551328 (Biochemistry, 2008)
Values joined by “and” are separate entries in the source; they are usually repeats but may differ in a detail not shown here. Equal entries are not always repeated. Where two headings read alike, the source gives them in different places.

Legend:
M.tb PGDH = biological target: T1, M.tb PGDH (Mycobacterium tuberculosis, UniProt P9WNX3); format: binding
T1 sequence (P9WNX3 1-528): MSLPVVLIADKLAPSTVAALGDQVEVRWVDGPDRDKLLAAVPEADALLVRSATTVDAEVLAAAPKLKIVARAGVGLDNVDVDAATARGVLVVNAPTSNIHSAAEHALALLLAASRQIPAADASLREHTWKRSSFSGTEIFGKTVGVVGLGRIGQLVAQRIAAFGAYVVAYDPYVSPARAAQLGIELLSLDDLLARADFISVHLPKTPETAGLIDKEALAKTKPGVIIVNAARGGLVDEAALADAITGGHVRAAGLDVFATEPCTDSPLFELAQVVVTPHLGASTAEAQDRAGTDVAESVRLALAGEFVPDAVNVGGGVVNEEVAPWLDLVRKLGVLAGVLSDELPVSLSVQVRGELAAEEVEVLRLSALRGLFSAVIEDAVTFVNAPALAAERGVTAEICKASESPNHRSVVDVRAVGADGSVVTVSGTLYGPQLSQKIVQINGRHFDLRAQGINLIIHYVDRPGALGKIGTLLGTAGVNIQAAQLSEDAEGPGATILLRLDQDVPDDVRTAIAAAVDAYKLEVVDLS

M.tb PGDH (Native) [1] = biological target: T2, M.tb PGDH (Native) (Mycobacterium tuberculosis, UniProt P9WNX3); format: biochemical
T2 sequence (P9WNX3 1-528): T1 sequence (P9WNX3 1-528)

rat liver PGDH = details: cited from earlier work
E. coli PGDH [2] = details: read-out: IC50 for L-serine; cited from earlier work
PGDH from C. glutamicum = details: read-out: IC50 (serine); cited from earlier work
chicken liver PGDH = details: cited from earlier work
Human PGDH = Human PGDH (Homo sapiens, UniProt O43175); test: Serine effect on human PGDH; format: biochemical; details: unpublished result
PGDH from B. subtilis = details: read-out: IC50 (serine); cited from earlier work
E. coli PGDH [3] = details: read-out: Kd (NADH), without cooperativity; cited from earlier work
M.tb PGDH (Native) [4] = biological target: T2, M.tb PGDH (Native); details: read-out: Km (NADH), homotropic positive cooperativity; cited from earlier work

Human PGDH, sequence (O43175 whole entry): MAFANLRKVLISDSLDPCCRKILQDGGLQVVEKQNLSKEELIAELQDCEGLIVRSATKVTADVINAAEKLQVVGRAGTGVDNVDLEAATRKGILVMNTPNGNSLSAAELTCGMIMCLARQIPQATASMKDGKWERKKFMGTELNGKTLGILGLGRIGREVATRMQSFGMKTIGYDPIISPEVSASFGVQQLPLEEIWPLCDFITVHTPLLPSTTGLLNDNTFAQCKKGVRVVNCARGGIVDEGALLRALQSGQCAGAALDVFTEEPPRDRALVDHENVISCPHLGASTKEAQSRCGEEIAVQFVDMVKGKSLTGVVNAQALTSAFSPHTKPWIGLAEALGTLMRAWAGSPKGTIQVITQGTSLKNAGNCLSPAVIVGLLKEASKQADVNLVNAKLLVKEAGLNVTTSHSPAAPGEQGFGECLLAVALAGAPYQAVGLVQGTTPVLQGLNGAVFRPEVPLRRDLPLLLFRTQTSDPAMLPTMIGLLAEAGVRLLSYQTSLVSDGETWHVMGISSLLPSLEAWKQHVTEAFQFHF

For `O=C(O)C(=O)COP(=O)(O)O` [HPAP, hydroxypyruvic acid phosphate], the “HPAP binding transient (enzyme fluorescence increase)” value (M.tb PGDH) was “rapid binding”, the Ki (M.tb PGDH (Native) [1]) was 950 ± 120 µM and the kcat (M.tb PGDH (Native) [1]) was 2461 ± 281 s⁻¹. It also gave a Km (M.tb PGDH (Native) [1]; pH 7.5) of 170 ± 50 µM.

For `N[C@@H](CO)C(=O)O` [L-serine, reference compound], the “effect of serine on enzyme activity” value (rat liver PGDH) is listed as “no effect”, the IC50 (E. coli PGDH [2]) is listed as […] and the IC50 (PGDH from C. glutamicum) is listed as roughly 10000 µM. The “effect of serine on enzyme activity” value (chicken liver PGDH) was “no effect”, the “effect of serine on enzyme activity” value (Human PGDH) was “not inhibited” and the “effect of serine on enzyme activity” value (Human PGDH; listed as serine) was “not affected”. For the same compound, the IC50 (PGDH from B. subtilis) was roughly 600 µM and the “Hill Coefficient” value (M.tb PGDH (Native) [1]) was […].

In the case of `NC(=O)C1=CN([C@@H]2O[C@H](COP(=O)(O)OP(=O)(O)OC[C@H]3O[C@@H](n4cnc5c(N)ncnc54)[C@H](O)[C@@H]3O)[C@@H](O)[C@H]2O)C=CC1` [NADH], the “NADH concentration needed to produce a rate equal to the kcat” value (M.tb PGDH) is reported as “at least 65 mM”, the “on-rate for NADH binding” value (M.tb PGDH) is reported as “occurs within the dead-time of the instrument” and the “on-rates for NADH binding” value (M.tb PGDH) is reported as “zero”. For the same compound, the “off-rate of NADH binding” value (M.tb PGDH; pH 7.5) was 0.34 sec ^−1 and 0.21 sec ^−1, the Kd (M.tb PGDH; read-out: Kd for NADH binding) was 15 to 30 µM and the Kd (E. coli PGDH [3]) was less than 0.5 µM. The Km (M.tb PGDH (Native) [4]) was roughly 50 µM.

In the case of `O=C(O)C(O)COP(=O)(O)O` [phosphoglyceric acid, D-3-phosphoglyceric acid], the “effect on the rate of NADH binding” value (M.tb PGDH) is reported as “did not significantly enhance”.
